{
  "source": "PubChem BioAssay AID248",
  "about": "(DTP/NCI, 2004)",
  "system": "L1210 leukemia ip in BDF1 mice, survival T/C",
  "assay": "NCI In Vivo Anticancer Drug Screen. Data for tumor model L1210 Leukemia (intraperitoneal) in B6D2F1 (BDF1) mice",
  "conditions": "endpoint: mean survival time, higher = longer survival",
  "how_it_was_run": "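Ratio derived from survival: compound-dosed mice over vehicle-dosed mice, all bearing a transplantable tumor.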",
  "key": {"[1]": {"conditions": "dose: 100.0 mg/kg/injection, schedule: Q04DX003 (ip), vehicle: Klucel (hydroxypropylcellulose) (HPC)"}, "[2]": {"conditions": "dose: 200.0 mg/kg/injection, schedule: Q04DX003 (ip), vehicle: Klucel (hydroxypropylcellulose) (HPC)"}, "[3]": {"conditions": "dose: 400.0 mg/kg/injection, schedule: Q04DX003 (ip), vehicle: Klucel (hydroxypropylcellulose) (HPC)"}, "[4]": {"conditions": "dose: 200.0 mg/kg/injection, schedule: Q01DX009 (ip), vehicle: saline with Tween-80"}, "[5]": {"conditions": "dose: 400.0 mg/kg/injection, schedule: Q01DX009 (ip), vehicle: saline with Tween-80"}},
  "note": "Toxic doses and inconclusive results are not listed.",
  "data": [
    {"smiles": "CCCCOC(=O)c1[nH]cnc1N", "values": [
      {"measurement": "T/C", "setting": "dose: 100.0 mg/kg/injection, schedule: Q01DX001 (ip), vehicle: saline", "result": "114 % of control"},
      {"measurement": "T/C", "setting": "dose: 200.0 mg/kg/injection, schedule: Q01DX001 (ip), vehicle: saline", "result": "110 % of control"}
    ]},
    {"smiles": "CCOC(=O)N1Cc2cc3ccccc3nc2C1CC(=O)O", "note": "(stereo not drawn)", "values": [
      {"measurement": "T/C", "setting": "dose: 100.0 mg/kg/injection, schedule: Q01DX009 (ip), vehicle: Klucel (hydroxypropylcellulose) (HPC)", "result": "104 % of control"},
      {"measurement": "T/C", "setting": "[1]", "result": "105 % of control"},
      {"measurement": "T/C", "setting": "dose: 200.0 mg/kg/injection, schedule: Q01DX009 (ip), vehicle: Klucel (hydroxypropylcellulose) (HPC)", "result": "98 % of control"},
      {"measurement": "T/C", "setting": "[2]", "result": "88 % of control"},
      {"measurement": "T/C", "setting": "dose: 400.0 mg/kg/injection, schedule: Q01DX009 (ip), vehicle: Klucel (hydroxypropylcellulose) (HPC)", "result": "102 % of control"},
      {"measurement": "T/C", "setting": "[3]", "result": "96 % of control"}
    ]},
    {"smiles": "c1cc2c(c(C3=NCCO3)c1)CCCC2", "note": "(tested in a mixture with another compound)", "values": [
      {"measurement": "T/C", "setting": "dose: 100.0 mg/kg/injection, schedule: Q01DX009 (ip), vehicle: saline with Tween-80", "result": "96 % of control"},
      {"measurement": "T/C", "setting": "[4]", "result": "88 % of control"},
      {"measurement": "T/C", "setting": "[5]", "result": "91 % of control"}
    ]},
    {"smiles": "CCCCSc1ncc(C)c(N(C)C)n1", "values": [
      {"measurement": "T/C", "setting": "dose: 25.0 mg/kg/injection, schedule: Q01DX Z (ip), vehicle: methylcellulose (MC)", "result": "92 % of control"},
      {"measurement": "T/C", "setting": "dose: 50.0 mg/kg/injection, schedule: Q01DX Z (ip), vehicle: methylcellulose (MC)", "result": "89 % of control"}
    ]},
    {"smiles": "CCCCOC(=O)C(N)Cc1ccc(OC)c(N(CCCl)CCCl)c1", "note": "(stereo not drawn)", "values": [
      {"measurement": "T/C", "setting": "dose: 0.6 mg/kg/injection, schedule: Q01DX009 (ip), vehicle: saline", "result": "93 % of control"},
      {"measurement": "T/C", "setting": "dose: 0.75 mg/kg/injection, schedule: Q01DX001 (ip), vehicle: saline", "result": "108 % of control"},
      {"measurement": "T/C", "setting": "dose: 1.3 mg/kg/injection, schedule: Q01DX009 (ip), vehicle: saline", "result": "191 % of control"},
      {"measurement": "T/C", "setting": "dose: 1.5 mg/kg/injection, schedule: Q01DX001 (ip), vehicle: saline", "result": "118 % of control"},
      {"measurement": "T/C", "setting": "dose: 2.0 mg/kg/injection, schedule: Q01DX009 (ip), vehicle: saline", "result": "162 % of control"},
      {"measurement": "T/C", "setting": "dose: 2.6 mg/kg/injection, schedule: Q01DX001 (ip), vehicle: saline", "result": "109 % of control"},
      {"measurement": "T/C", "setting": "dose: 3.0 mg/kg/injection, schedule: Q01DX009 (ip), vehicle: saline", "result": "107 % of control"},
      {"measurement": "T/C", "setting": "dose: 6.0 mg/kg/injection, schedule: Q01DX001 (ip), vehicle: saline", "result": "118 % of control"},
      {"measurement": "T/C", "setting": "dose: 12.0 mg/kg/injection, schedule: Q01DX001 (ip), vehicle: saline", "result": "120 % of control"}
    ]},
    {"smiles": "CC(=O)Nc1c([N+](=O)[O-])cc2c3c(cccc13)C=C2", "values": [
      {"measurement": "T/C", "setting": "[4]", "result": "96 % of control"},
      {"measurement": "T/C", "setting": "[5]", "result": "96 % of control"}
    ]},
    {"smiles": "ClCC1=NCCN1", "values": [
      {"measurement": "T/C", "setting": "dose: 12.5 mg/kg/injection, schedule: Q04DX002 (ip), vehicle: Klucel (hydroxypropylcellulose) (HPC)", "result": "97 % of control"},
      {"measurement": "T/C", "setting": "dose: 25.0 mg/kg/injection, schedule: Q04DX002 (ip), vehicle: Klucel (hydroxypropylcellulose) (HPC)", "result": "97 % of control"},
      {"measurement": "T/C", "setting": "dose: 50.0 mg/kg/injection, schedule: Q04DX002 (ip), vehicle: Klucel (hydroxypropylcellulose) (HPC)", "result": "97 % of control"}
    ]},
    {"smiles": "O=C(Nc1cc(C2=NCCN2)cc(C2=NCCN2)c1)Nc1cc(C2=NCCN2)cc(C2=NCCN2)c1", "values": [
      {"measurement": "T/C", "setting": "dose: 0.75 mg/kg/injection, schedule: Q01DX Z (ip), vehicle: carboxymethylcellulose (CMC)", "result": "101 % of control"},
      {"measurement": "T/C", "setting": "dose: 1.5 mg/kg/injection, schedule: Q01DX Z (ip), vehicle: carboxymethylcellulose (CMC)", "result": "98 % of control"},
      {"measurement": "T/C", "setting": "dose: 3.0 mg/kg/injection, schedule: Q01DX Z (ip), vehicle: carboxymethylcellulose (CMC)", "result": "95 % of control"},
      {"measurement": "T/C", "setting": "dose: 6.0 mg/kg/injection, schedule: Q01DX Z (ip), vehicle: carboxymethylcellulose (CMC)", "result": "101 % of control"}
    ]},
    {"smiles": "CCOC(=O)c1c(-c2ccccc2)cn2c1OC(C)CC2(C)C", "note": "(stereo not drawn)", "values": [
      {"measurement": "T/C", "setting": "dose: 100.0 mg/kg/injection, schedule: Q01DX001 (ip), vehicle: Klucel (hydroxypropylcellulose) (HPC)", "result": "105 % of control"},
      {"measurement": "T/C", "setting": "dose: 200.0 mg/kg/injection, schedule: Q01DX001 (ip), vehicle: Klucel (hydroxypropylcellulose) (HPC)", "result": "100 % of control"},
      {"measurement": "T/C", "setting": "dose: 400.0 mg/kg/injection, schedule: Q01DX001 (ip), vehicle: Klucel (hydroxypropylcellulose) (HPC)", "result": "93 % of control"}
    ]},
    {"smiles": "O=NC12CCCCC1C(O)c1cc(Cl)cc(Cl)c1O2", "note": "(stereo not drawn)", "values": [
      {"measurement": "T/C", "setting": "dose: 100.0 mg/kg/injection, schedule: Q01DX009 (ip), vehicle: other", "result": "119 % of control"},
      {"measurement": "T/C", "setting": "[1]", "result": "101 % of control"},
      {"measurement": "T/C", "setting": "dose: 200.0 mg/kg/injection, schedule: Q01DX009 (ip), vehicle: other", "result": "95 % of control"},
      {"measurement": "T/C", "setting": "[2]", "result": "95 % of control"},
      {"measurement": "T/C", "setting": "dose: 400.0 mg/kg/injection, schedule: Q01DX009 (ip), vehicle: other", "result": "89 % of control"},
      {"measurement": "T/C", "setting": "[3]", "result": "102 % of control"}
    ]},
    {"smiles": "O=C(O)c1cscc1Cc1cccs1", "values": [
      {"measurement": "T/C", "setting": "dose: 100.0 mg/kg/injection, schedule: Q01DX001 (ip), vehicle: saline with Tween-80", "result": "96 % of control"},
      {"measurement": "T/C", "setting": "dose: 200.0 mg/kg/injection, schedule: Q01DX001 (ip), vehicle: saline with Tween-80", "result": "96 % of control"},
      {"measurement": "T/C", "setting": "dose: 400.0 mg/kg/injection, schedule: Q01DX001 (ip), vehicle: saline with Tween-80", "result": "103 % of control"}
    ]}
  ]
}
